Laboratory results from US10143200B2, “Synergistic compositions for the protection of agrarian crops and the use thereof” (STICHTING I-F PRODUCT COLLABORATION, priority 2012, dated 2018).

Key:
Botrytis cinerea (BC) = assay: In vitro growth inhibition of spore suspensions (optical density 405 nm, 43 h); assay type: cell-based; settings: concentration giving 50% growth inhibition; Botrytis cinerea spores, 43 hours at room temperature, average of three replicates
[1] = tested on: Stagonospora nodorum (SN); assay: as above; assay type: cell-based; settings: concentration giving 50% growth inhibition; Stagonospora nodorum spores, 43 hours at room temperature, average of three replicates
Puccinia recondita = assay: Fungicidal activity in preventive application (5 days) on wheat; assay type: in vivo, Puccinia recondita on wheat (Salgemma variety); settings: leaf spray 5 days before inoculation, reduction of affected leaf area vs untreated, scale 0-100
Description: Leaves of wheat plants of the […] variety, grown in pots in a conditioned environment kept at 20° C. and 70% of relative humidity (R.H.), were treated by spraying both sides of the leaves with the compounds and the compositions under testing, dispersed in hydroacetonic solutions at 20% by volume of acetone. After remaining 5 days in a conditioned environment, the plants were sprayed on both sides of the leaves with an aqueous suspension of conidia of Puccinia recondita (2 mg of inoculum per 1 ml of solution for infection). After being sprayed, the plants were kept in a humidity-saturated environment at a temperature ranging from 18 to 24° C. for the incubation period of the fungus (1 day). After this period, the plants were put in a greenhouse with R.H. of 70% and at a temperature of 18-24° C. for 14 days. At the end of this period the external symptoms of the pathogen appeared and it was therefore possible to proceed with the visual assessment of the intensity of the infection. The fungicidal activity was expressed as percentage of reduction of affected leaves areas with respect to those of untreated plants used as control: the scale comprised, as extremes, the value 100 (full activity; healthy plant) and the value 0 (no activity; completely infected plant).

wheat plants = assay: Phytotoxicity (percentage of leaf necrosis) on wheat plants; assay type: in vivo, wheat (Salgemma variety); settings: scale 0 (none) to 100
Description: Leaves of wheat plants of the Salgemma variety, grown in pots in a conditioned environment kept at 20° C. and 70% of relative humidity (R.H.), were treated by spraying both sides of the leaves with the compounds and the compositions under testing, dispersed in hydroacetonic solutions at 20% by volume of acetone.
At the same time, the phytotoxicity (percentage of leaf necrosis) induced on the wheat plants by the application of the products and compositions was evaluated: in this case, the scale ranged from 0 (no phytotoxicity) to 100 (completely necrotized plant).

SMILES | EC50 against Botrytis cinerea (Botrytis cinerea (BC)) | SN EC50 [1] [ppm] | % Activity (Puccinia recondita; Rate 62.5 ppm) [%] | % Activity (Puccinia recondita; Rate 125 ppm) [%] | % Phytotoxicity (wheat plants; Rate 62.5 ppm) [%] | % Phytotoxicity (wheat plants; Rate 125 ppm) [%]
CC1CC(C)(C)c2c(F)ccc(NC(=O)c3cn(C)nc3C(F)F)c21 (racemic) [Racemic (I), 3-difluoromethyl-N-(7-fluoro-1,1,3-trimethyl-4-indanyl)-1-methyl-4-pyrazolecarboxamide] | 0.32 ppm | 1.1 | 96 | 98 | 0 | 0
CC1CC(C)(C)c2c(F)ccc(NC(=O)c3cn(C)nc3C(F)F)c21 (single isomer, unassigned; (+)) [(+)-(I), 3-difluoromethyl-N-(7-fluoro-1,1,3-trimethyl-4-indanyl)-1-methyl-4-pyrazolecarboxamide] | n.i. | 72 | 20 | 45 | 0 | 0
CC1CC(C)(C)c2c(F)ccc(NC(=O)c3cn(C)nc3C(F)F)c21 (single isomer, unassigned; (-)) [(−)-(I), 3-difluoromethyl-N-(7-fluoro-1,1,3-trimethyl-4-indanyl)-1-methyl-4-pyrazolecarboxamide] | 0.17 ppm | 0.42 | 96 | 100 | 0 | 0
